{"source": "patent US20260285850A1", "about": "“SUBSTITUTED OXAZOLIDINONES AND IMIDAZOLINONES AS HERBICIDES” (FMC CORPORATION, priority 2023, published 2026)", "type_in_all_cases": "in vivo", "key": {"[1]": {"test_system": "ryegrass, Italian (italian ryegrass, Lolium multiflorum)", "experiment": "Test A postemergence application, visual injury rating 0-100", "details": "10 days", "in_short": "(§1)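 Grow plants in loam soil blended with sand. Apply formulated compound (non-phytotoxic solvent, surfactant) as a directed soil spray before emergence, or to plants at the one- to two-leaf stage after emergence. Hold in greenhouse 10 days, then rate injury visually versus untreated controls on a 0-100 scale.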"}, "[2]": {"test_system": "oat, wild (wild oat, Avena fatua)", "experiment": "Test A postemergence application, visual injury rating 0-100", "details": "10 days", "in_short": "as §1"}, "corn (Zea mays) [3]": {"test_system": "corn (Zea mays)", "experiment": "Test A postemergence application, visual injury rating 0-100", "details": "10 days", "in_short": "as §1"}, "kochia (Bassia scoparia) [4]": {"test_system": "kochia (Bassia scoparia)", "experiment": "Test A postemergence application, visual injury rating 0-100", "details": "10 days", "in_short": "as §1"}, "[5]": {"test_system": "blackgrass (Alopecurus myosuroides)", "experiment": "Test A postemergence application, visual injury rating 0-100", "details": "10 days", "in_short": "as §1"}, "[6]": {"test_system": "ragweed (common ragweed, Ambrosia artemisiifolia)", "experiment": "Test A postemergence application, visual injury rating 0-100", "details": "10 days", "in_short": "as §1"}, "[7]": {"test_system": "galium (catchweed bedstraw, Galium aparine)", "experiment": "Test A postemergence application, visual injury rating 0-100", "details": "10 days", "in_short": "as §1"}, "[8]": {"test_system": "horseweed (Erigeron canadensis)", "experiment": "Test A postemergence application, visual injury rating 0-100", "details": "10 days", "in_short": "as §1"}, "soybean (Glycine max) [9]": {"test_system": "soybean (Glycine max)", "experiment": "Test A postemergence application, visual injury rating 0-100", "details": "10 days", "in_short": "as §1"}, "[10]": {"test_system": "green foxtail (Setaria viridis)", "experiment": "Test A postemergence application, visual injury rating 0-100", "details": "10 days", "in_short": "as §1"}, "[11]": {"test_system": "wheat (Triticum aestivum)", "experiment": "Test A postemergence application, visual injury rating 0-100", "details": "10 days", "in_short": "as §1"}, "[12]": {"test_system": "palmer (palmer amaranth, palmer pigweed, Amaranthus palmeri)", "experiment": "Test A postemergence application, visual injury rating 0-100", "details": "10 days", "in_short": "as §1"}, "[13]": {"test_system": "barnyardgrass (Echinochloa crus-galli)", "experiment": "Test A postemergence application, visual injury rating 0-100", "details": "10 days", "in_short": "as §1"}, "rice (Oryza sativa)": {"test_system": "rice (Oryza sativa)", "experiment": "Test B flooded paddy test, visual plant response rating 0-100", "details": "250 g ai/ha, Flood, applied to paddy water, evaluated after 13 days", "in_short": "(§2)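 Paddy-water application: test compounds went directly into water flooded 3 cm above the soil surface, with plants at 2 leaves. After a 13-day greenhouse period, responses were judged by eye relative to controls; a dash marks an untested entry.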"}, "[14]": {"test_system": "ducksalad (Heteranthera limosa)", "experiment": "Test B flooded paddy test, visual plant response rating 0-100", "details": "250 g ai/ha, Flood, applied to paddy water, evaluated after 13 days", "in_short": "as §2"}, "[15]": {"test_system": "barnyardgrass (Echinochloa crusgalli)", "experiment": "Test B flooded paddy test, visual plant response rating 0-100", "details": "250 g ai/ha, Flood, applied to paddy water, evaluated after 13 days", "in_short": "as §2"}, "[16]": {"test_system": "sedge, umbrella (small-flower umbrella sedge, Cyperus difformis)", "experiment": "Test B flooded paddy test, visual plant response rating 0-100", "details": "250 g ai/ha, Flood, applied to paddy water, evaluated after 13 days", "in_short": "as §2"}, "[17]": {"test_system": "ryegrass, Italian (italian ryegrass, Lolium multiflorum)", "experiment": "Test A preemergence soil spray, visual injury rating 0-100", "details": "10 days, 0 = no effect, 100 = complete control", "in_short": "as §1"}, "[18]": {"test_system": "oat, wild (wild oat, Avena fatua)", "experiment": "Test A preemergence soil spray, visual injury rating 0-100", "details": "10 days, 0 = no effect, 100 = complete control", "in_short": "as §1"}, "corn (Zea mays) [19]": {"test_system": "corn (Zea mays)", "experiment": "Test A preemergence soil spray, visual injury rating 0-100", "details": "10 days, 0 = no effect, 100 = complete control", "in_short": "as §1"}, "kochia (Bassia scoparia) [20]": {"test_system": "kochia (Bassia scoparia)", "experiment": "Test A preemergence soil spray, visual injury rating 0-100", "details": "10 days, 0 = no effect, 100 = complete control", "in_short": "as §1"}, "[21]": {"test_system": "blackgrass (Alopecurus myosuroides)", "experiment": "Test A preemergence soil spray, visual injury rating 0-100", "details": "10 days, 0 = no effect, 100 = complete control", "in_short": "as §1"}, "[22]": {"test_system": "ragweed (common ragweed, Ambrosia artemisiifolia)", "experiment": "Test A preemergence soil spray, visual injury rating 0-100", "details": "10 days, 0 = no effect, 100 = complete control", "in_short": "as §1"}, "soybean (Glycine max) [23]": {"test_system": "soybean (Glycine max)", "experiment": "Test A preemergence soil spray, visual injury rating 0-100", "details": "10 days, 0 = no effect, 100 = complete control", "in_short": "as §1"}, "[24]": {"test_system": "green foxtail (Setaria viridis)", "experiment": "Test A preemergence soil spray, visual injury rating 0-100", "details": "10 days, 0 = no effect, 100 = complete control", "in_short": "as §1"}, "[25]": {"test_system": "wheat (Triticum aestivum)", "experiment": "Test A preemergence soil spray, visual injury rating 0-100", "details": "10 days, 0 = no effect, 100 = complete control", "in_short": "as §1"}, "[26]": {"test_system": "palmer (palmer amaranth, palmer pigweed, Amaranthus palmeri)", "experiment": "Test A preemergence soil spray, visual injury rating 0-100", "details": "10 days, 0 = no effect, 100 = complete control", "in_short": "as §1"}, "[27]": {"test_system": "barnyardgrass (Echinochloa crus-galli)", "experiment": "Test A preemergence soil spray, visual injury rating 0-100", "details": "10 days, 0 = no effect, 100 = complete control", "in_short": "as §1"}, "[28]": {"details": "31 g ai/ha, postemergence, 0 = no effect, 100 = complete control"}, "[29]": {"details": "Postemergence, 125 g ai/ha, 0 is no effect, 100 is complete control"}}, "data": [{"smiles": "CC(C)OC(=O)C1CC(NC(=O)C2(C)CN(c3cc(F)cc(F)c3)C(=O)O2)CO1", "note": "(stereo not shown) [Compound 32]", "values": [{"measurement": "Ryegrass, Italian plant response rating (0-100)", "setting": "[1]; [28]", "result": 20}, {"measurement": "Ryegrass, Italian plant response rating (0 to 100 scale)", "setting": "[1]; [29]", "result": 80}, {"measurement": "Oat, Wild plant response rating (0-100)", "setting": "[2]; [28]", "result": 80}, {"measurement": "Oat, Wild plant response rating (0 to 100 scale)", "setting": "[2]; [29]", "result": 90}, {"measurement": "Corn plant response rating (0-100)", "setting": "corn (Zea mays) [3]; [28]", "result": 0}, {"measurement": "Corn plant response rating (0 to 100 scale)", "setting": "corn (Zea mays) [3]; [29]", "result": 50}, {"measurement": "Kochia plant response rating (0-100)", "setting": "kochia (Bassia scoparia) [4]; [28]", "result": 40}, {"measurement": "Kochia plant response rating (0 to 100 scale)", "setting": "kochia (Bassia scoparia) [4]; [29]", "result": 50}, {"measurement": "Blackgrass plant response rating (0-100)", "setting": "[5]; [28]", "result": 80}, {"measurement": "Blackgrass plant response rating (0 to 100 scale)", "setting": "[5]; [29]", "result": 100}, {"measurement": "Ragweed plant response rating (0-100)", "setting": "[6]; [28]", "result": 30}, {"measurement": "Ragweed plant response rating (0 to 100 scale)", "setting": "[6]; [29]", "result": 50}, {"measurement": "Galium plant response rating (0-100)", "setting": "[7]; [28]", "result": 50}, {"measurement": "Galium plant response rating (0 to 100 scale)", "setting": "[7]; [29]", "result": 80}, {"measurement": "Horseweed plant response rating (0-100)", "setting": "[8]; [28]", "result": 0}, {"measurement": "Horseweed plant response rating (0 to 100 scale)", "setting": "[8]; [29]", "result": 0}, {"measurement": "Soybean plant response rating (0-100)", "setting": "soybean (Glycine max) [9]; [28]", "result": 20}, {"measurement": "Soybean plant response rating (0 to 100 scale)", "setting": "soybean (Glycine max) [9]; [29]", "result": 60}, {"measurement": "Foxtail, Green plant response rating (0-100)", "setting": "[10]; [28]", "result": 0}, {"measurement": "Foxtail, Green plant response rating (0 to 100 scale)", "setting": "[10]; [29]", "result": 40}, {"measurement": "Wheat plant response rating (0-100)", "setting": "[11]; [28]", "result": 80}, {"measurement": "Wheat plant response rating (0 to 100 scale)", "setting": "[11]; [29]", "result": 90}, {"measurement": "Amaranth, Palmer plant response rating (0-100)", "setting": "[12]; [28]", "result": 0}, {"measurement": "Amaranth, Palmer / Pigweed, Palmer plant response rating (0 to 100 scale)", "setting": "[12]; [29]", "result": 30}, {"measurement": "Barnyardgrass plant response rating (0-100)", "setting": "[13]; [28]", "result": 0}, {"measurement": "Barnyardgrass plant response rating (0 to 100 scale)", "setting": "[13]; [29]", "result": 90}, {"measurement": "Plant response rating, Rice (0 to 100 scale, 0 is no effect and 100 is complete control)", "setting": "rice (Oryza sativa)", "result": 0}, {"measurement": "Plant response rating, Ducksalad (0 to 100 scale, 0 is no effect and 100 is complete control)", "setting": "[14]", "result": 0}, {"measurement": "Plant response rating, Barnyardgrass (0 to 100 scale, 0 is no effect and 100 is complete control)", "setting": "[15]", "result": 0}, {"measurement": "Plant response rating, Sedge, Umbrella (0 to 100 scale, 0 is no effect and 100 is complete control)", "setting": "[16]", "result": 0}, {"measurement": "Ryegrass, Italian plant response rating (0-100)", "setting": "[17]; 31 g ai/ha", "result": 0}, {"measurement": "Ryegrass, Italian plant response rating (0 to 100 scale)", "setting": "[17]; 125 g ai/ha", "result": 80}, {"measurement": "Oat, Wild plant response rating (0-100)", "setting": "[18]; 31 g ai/ha", "result": 0}, {"measurement": "Oat, Wild plant response rating (0 to 100 scale)", "setting": "[18]; 125 g ai/ha", "result": 40}, {"measurement": "Corn plant response rating (0-100)", "setting": "corn (Zea mays) [19]; 31 g ai/ha", "result": 0}, {"measurement": "Corn plant response rating (0 to 100 scale)", "setting": "corn (Zea mays) [19]; 125 g ai/ha", "result": 10}, {"measurement": "Kochia plant response rating (0-100)", "setting": "kochia (Bassia scoparia) [20]; 31 g ai/ha", "result": 0}, {"measurement": "Kochia plant response rating (0 to 100 scale)", "setting": "kochia (Bassia scoparia) [20]; 125 g ai/ha", "result": 20}, {"measurement": "Blackgrass plant response rating (0-100)", "setting": "[21]; 31 g ai/ha", "result": 0}, {"measurement": "Blackgrass plant response rating (0 to 100 scale)", "setting": "[21]; 125 g ai/ha", "result": 0}, {"measurement": "Ragweed plant response rating (0-100)", "setting": "[22]; 31 g ai/ha", "result": 0}, {"measurement": "Ragweed plant response rating (0 to 100 scale)", "setting": "[22]; 125 g ai/ha", "result": 0}, {"measurement": "Soybean plant response rating (0-100)", "setting": "soybean (Glycine max) [23]; 31 g ai/ha", "result": 20}, {"measurement": "Soybean plant response rating (0 to 100 scale)", "setting": "soybean (Glycine max) [23]; 125 g ai/ha", "result": 0}, {"measurement": "Foxtail, Green plant response rating (0-100)", "setting": "[24]; 31 g ai/ha", "result": 0}, {"measurement": "Foxtail, Green plant response rating (0 to 100 scale)", "setting": "[24]; 125 g ai/ha", "result": 0}, {"measurement": "Wheat plant response rating (0-100)", "setting": "[25]; 31 g ai/ha", "result": 0}, {"measurement": "Wheat plant response rating (0 to 100 scale)", "setting": "[25]; 125 g ai/ha", "result": 70}, {"measurement": "Amaranth, Palmer plant response rating (0-100)", "setting": "[26]; 31 g ai/ha", "result": 0}, {"measurement": "Amaranth, Palmer plant response rating (0 to 100 scale)", "setting": "[26]; 125 g ai/ha", "result": 0}, {"measurement": "Barnyardgrass plant response rating (0-100)", "setting": "[27]; 31 g ai/ha", "result": 0}, {"measurement": "Barnyardgrass plant response rating (0 to 100 scale)", "setting": "[27]; 125 g ai/ha", "result": 0}]}]}
